Reference: US7790716B2, “Fab I inhibitors” (Affinium Pharmaceuticals, Inc., priority 1999, dated 2010)

Biological target: T1, FabK (Streptococcus pneumoniae, UniProt Q9FBC5)
T1 sequence (Q9FBC5 1-324): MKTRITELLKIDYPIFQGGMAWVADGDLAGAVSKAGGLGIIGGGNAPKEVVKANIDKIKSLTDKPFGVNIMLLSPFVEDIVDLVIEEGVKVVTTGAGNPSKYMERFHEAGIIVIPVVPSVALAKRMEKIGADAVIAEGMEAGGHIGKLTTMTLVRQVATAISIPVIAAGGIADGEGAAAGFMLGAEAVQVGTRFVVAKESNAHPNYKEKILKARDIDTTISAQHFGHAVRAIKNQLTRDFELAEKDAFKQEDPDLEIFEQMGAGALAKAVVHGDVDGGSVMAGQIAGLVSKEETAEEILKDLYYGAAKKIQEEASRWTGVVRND
Test: FabK Enzyme Inhibition Assay
Format: biochemical
Procedure: FabK catalyses the reduction of enoyl-ACPs with the concomitant oxidation of NADH. The reduction of crotonoyl-ACP to butyryl-ACP can be monitored by following the change in absorbance at 340 nm as NADH is oxidized.
Assays were carried out in Costar 3696 half-area plates in a final assay volume of 150 uL on a Spectramax platereader. The substrates (NADH and crotonoyl-ACP) were incubated with FabK enzyme in 100 mM N-[2-acetamido]-2 iminodiacetic acid (ADA), pH 6.5, 100 mM NH4Cl, 4% glycerol at 30° C. and the reaction was monitored at 340 nm.
Using the above assay, compounds were tested for inhibition of FabK. 30 uL of inhibitor was added to a well of the plate. 30 uL of a 250 uM stock of NADH and 60 uL of a 67.5 uM stock of crotonoyl ACP were then added to the well. The plate was incubated at 30° C. for 5 min. The reaction was initiated by adding 30 uL of a 6.25 nM stock of enzyme to the well (also pre-incubated at 30° C.). The reaction was then monitored at A340 nm for 30 min at 30° C. Positive controls were reactions without compound. Negative controls were reactions without enzyme and without compound. Final concentrations in the assay mixture were 25 uM crotonoyl-ACP, 50 uM NADH, and 1.25 nM enzyme.
IC50s were determined for compounds by carrying out the assay at 8 different concentrations of compound (100 uM-0.75 uM) in duplicate. The IC50 was calculated using Grafit software (v 4.09). […]

Fab K inhibition (result in words): dual Fab I/Fab K inhibitors
SMILES: CN(Cc1cn(C)c2ccccc12)C(=O)/C=C/c1cnc2c(c1)CCC(=O)N2 [Example 62, (E)-N-methyl-N-(1-methyl-1H-indol-3-ylmethyl)-3-(7-oxo-5,6,7,8-tetrahydro-1,8-naphthyridin-3-yl)acrylamide]
